Several values for one entry are separate records, joined by “and”; a condition that tells them apart may be missing. Identical values can stand only once.
Tested on: P. falciparum 3D7 growth, pLDH absorbance
Assay: blood-stage malaria parasite growth potency – strain 3D7, dose response (AID 2305)

| SMILES | IC50 |
| --- | --- |
| COc1ccc(CCN(Cc2cccs2)C(=O)c2cc3sccc3n2C)cc1OC | 350 nM |
| CC(CN1CCN(C)CC1)C(=O)Nc1cccc(-c2ccc(-c3nc4ccccc4[nH]3)cc2)c1 (configuration not stated) | 940 nM |
| Nc1ccncc1C(=O)NCCCCN1CCN(c2nsc3ccccc23)CC1 | 800 nM |
| CCOc1ccc(NC(=O)c2ccc(NCCCN3CC(C)CC(C)C3)c([N+](=O)[O-])c2)cc1 (configuration not stated) | 710 nM |
| Cc1c(Cn2ncc(N3CCC(N)CC3)c(Cl)c2=O)cccc1NC(=O)Nc1ccc(-c2ccccc2)cc1 | 700 nM |
| COc1cc2nc(N3CCN(C(=O)c4cccc(I)c4)CC3)nc(N)c2cc1OC | 1320 nM |
| S=C(NN=Cc1ccccn1)Nc1ccc2c(c1)OCCO2 | 1050 nM |
| Cc1c(C)c2c(c(C)c1O)CC[C@@](C)(C(=O)N1CCC(CN3CCC(c4c[nH]c5ccccc45)CC3)CC1)O2 | 660 nM |
| Oc1ccc(CCNc2nc(NCc3ccccc3-c3ccccc3)nc(N3CCCNCC3)n2)cc1 | 880 nM |
| COc1ccc(-c2ccc(NC(=O)c3ccc(Cl)cc3)cc2)cc1CN1CCNCC1 | 130 nM |
| CCNCCCC(C)Nc1ccnc2cc(Cl)ccc12 (configuration not stated) | 200 nM |
| CCN(CC)CCCC(C)Nc1c(-c2ccc(C)cc2)cnc2ccccc12 (configuration not stated) | 200 nM |
| O=C(N[C@H]1CCN(Cc2ccc(OCCN3CCCC3)c(Cl)c2)C1)c1ccc(Cl)c(Cl)c1 | 920 nM |
| CCN(CC)CCN(Cc1ccc(-c2ccc(C(F)(F)F)cc2)cc1)C(=O)Cn1c(CCc2c(F)cccc2F)nc(=O)c2ccccc21 | 640 nM |
| CCN(CC)CCCN(C(=O)Nc1c(Cl)cncc1Cl)c1nc(-c2ccc(F)cc2)cs1 | 240 nM |
| O=C(Nc1ccc(OC2CCN(Cc3ccc(F)cc3)CC2)c(Cl)c1)c1cccs1 | 320 nM |
| CC(C)Oc1cc(-c2ccc(S(C)(=O)=O)cc2)nc(N(Cc2cccc(F)c2F)Cc2cccc(F)c2F)n1 | 120 nM |
| O=C1C2=C(Nc3ccccc3SC2c2ccccc2)c2ccccc21 (configuration not stated) | 330 nM |
| CCOC(=O)c1cccc(NC(=O)Nc2cccc(-c3ncc(OCCCN)c4c3nc(-c3nonc3N)n4CC)c2)c1 | 890 nM |
| O=C(Nc1ccc(N2CCN(Cc3ccccc3)CC2)cc1)c1cccs1 | 770 nM |
| O=S(=O)(Nc1ccc(-c2ccc(CN3CCCC3)cc2)cc1)c1cccc2cccnc12 | 1020 nM |
| CNC(=O)Cc1ccc(C(=O)Nc2cccc(-c3ccc(-c4nc5c(C)cccc5[nH]4)s3)c2)cc1 | 630 nM |
| Cc1cc(NC(=O)[C@H](CC(C)C)Nc2ccc(C#N)c3ccccc23)ccc1F | 780 nM |
| CCCS(=O)(=O)c1nc(S(=O)(=O)c2ccc(Cl)cc2)c(N2CCCCC2)s1 | 1290 nM |
| COc1ccc2nccc([C@@H](O)CN3CCC(NC(=O)C(c4cccs4)N4CCN(c5ccc(F)cc5)CC4)CC3)c2c1 (some centres not stated) | 820 nM |

| SMILES | IC50 |
| --- | --- |
| COc1cccc(Nc2nc(C)cc(NC3CCCC3)n2)c1 | 1110 nM |
| C[C@@H]1CN(c2ccnc3ccc(Sc4ccc(Oc5ccccc5)cc4)cc23)C[C@H](C)N1 | 780 nM |
| COc1ccc(-c2cnc3[nH]cc(-c4ccc(CCC(=O)O)cc4)c3c2)cn1 | 770 nM |
| Cc1cc(-c2cccc(CNCc3ccccc3)c2)ccc1S(=O)(=O)NCCN1CCCC1 | 730 nM |
| Cc1cccc2[nH]c(-c3cccc(-c4ccc(NC(=O)Nc5ccc(Cl)cc5)cc4)c3)nc12 | 200 nM |
| O=C(Nc1ccc(-c2csc(-c3nc4ccccc4[nH]3)c2)cc1)Nc1ccc(F)c(F)c1F | 330 nM |
| CC(C)c1ccc2[nH]c(C(=O)NC3CCC(N4CCCc5ccc(C#N)cc5C4)CC3)cc2c1 (configuration not stated) | 1090 nM |
| CCc1c[nH]c2c(N3CCCS3(=O)=O)cc(C(=O)N[C@@H](Cc3ccccc3)[C@H](O)CNC(C)(C)CCCC(C)C)cc12 | 670 nM |
| Cc1cc(NN=Cc2ccccn2)c2cc(C(F)(F)F)ccc2n1 | 620 nM |
| COc1ccc2ccccc2c1CNCC1CCN(CC2CCCCC2)CC1 | 760 nM |
| COc1cc(Nc2nccc(-c3c(-c4cccc(NC(=O)c5c(F)cccc5F)c4)nn4ccccc34)n2)cc(OC)c1OC | 80 nM |
| Cc1cc(Nc2ccc(C)c(Cl)c2)n2ncnc2n1 | 550 nM |
| Cc1cccc2[nH]c(-c3ccc(-c4cccc(NC(=O)C(C)CN5CCN(C)CC5)c4)cc3)nc12 (configuration not stated) | 740 nM |
| O=C(Nc1ccc([N+](=O)[O-])cc1Br)c1cc2ccccc2nc1Cl | 190 nM |
| CCCOc1cc(NC(=O)Nc2ccnc3ccccc23)cc(OCCC)c1 | 730 nM |
| CN1CCN(CC(=O)Nc2ccc(-c3ccc(-c4nc5ccc(C(F)(F)F)cc5[nH]4)s3)cc2)CC1 | 570 nM |
| O=C(CCCC(=O)Nc1ccc(C2=NCCN2)cc1)Nc1ccc(C2=NCCN2)cc1 | 110 nM |
| Nc1nc(N)c2cc3ccc(OCc4ccccc4)cc3nc2n1 | 320 nM |
| CN(Cc1cccc(F)c1)C1CCN(c2cc(NC(=O)c3ccc(F)cc3)ccn2)CC1 | 1160 nM |
| O=C(Nc1cccc(CN2CCN(C(=O)c3cccs3)CC2)c1)c1cccs1 | 780 nM |
| O=C(NCc1ccc(Cl)c(Cl)c1)c1ccc(-c2nc3ccc(F)cc3[nH]2)cc1 | 1030 nM |
| N#Cc1ccc(N2CCN(Cc3ccc(-c4ccc(-c5nc6ccccc6[nH]5)s4)cc3)CC2)nc1 | 1080 nM |
| COCCn1c(-c2nc(-c3ccc(F)cc3)cnc2N)nc2ccccc21 | 870 nM |
| Cc1[nH]c2ccc(NS(C)(=O)=O)cc2c1C1CCN(CC2CCN(C(=O)/C=C/c3ccc(Cl)c(Cl)c3)CC2)CC1 | 680 nM |
| CCc1cc(Cc2cnc(N)nc2N)cc(CC)c1OC | 1130 nM |

| SMILES | IC50 |
| --- | --- |
| O=C(/C=C/c1ccc(C(F)(F)F)cc1)NC1CCC(CN2CCC(c3c[nH]c4ccccc34)CC2)CC1 (configuration not stated) | 960 nM and 370 nM |
| CCOc1ccc(Nc2ccc3nonc3c2S(=O)(=O)Nc2ccc(OCC)cc2)cc1 | 510 nM |
| COc1cc(NCC(O)CNc2cc(OC)c3ccccc3n2)nc2ccccc12 | 110 nM |
| CCCNCc1ccc(-c2ccc(CN(CCOC)C(=O)CCC(=O)c3ccc(OC)c(F)c3)cc2)nc1 | 680 nM |
| CON(C)C(=O)[C@@H](CCCCNC(=O)OCc1ccccc1)NC(=O)OC(C)(C)C | 190 nM |
| O=[N+]([O-])c1ccc(Oc2ccccc2CNCC2CCN(CC3CCCCC3)CC2)cc1 | 900 nM |
| Cc1nc(-c2cccc3c(NC(=O)N4CCc5cc6nccc(N7CCN(C)CC7)c6cc54)cccc23)no1 | 760 nM |
| CN1CCN(c2cc3c(Nc4ccc5c(cnn5Cc5ccccc5)c4)ncnc3cn2)CC1 | 1130 nM |
| COc1cccc(NC(=O)Nc2ccc(-c3oc(C(=O)NCC(c4ccccc4)N(C)C)cc3-c3ccncc3)cc2)c1 (configuration not stated) | 1830 nM |
| COc1ccc(CN2CCC(CN3CC4(OC3=O)c3ccccc3-c3ccccc34)C2)c(O)c1 (configuration not stated) | 610 nM |
| CC(=O)Nc1ccc(CN2CCC(N(C)c3ccc(NC(=O)c4cccc(C)c4)cc3)CC2)cc1 | 990 nM |
| CCCCCN1CCC(NS(=O)(=O)c2ccc(C(=O)Nc3cccc(C(F)(F)F)c3)cc2)C1 (configuration not stated) | 1000 nM |
| O=C(/C=C/c1ccc(C(F)(F)F)cc1)N1CCC(CCN2CCC(c3c[nH]c4ccccc34)CC2)CC1 | 720 nM |
| COC(=O)CNC(c1ccccc1)c1cc(Br)ccc1NC(=O)c1ccccc1Br (configuration not stated) | 990 nM |
| Cc1ccc(F)c(OC2CCN(c3ccc(C(=O)NC4CC4)cn3)CC2)c1 | 820 nM |
| CC1(C)N=C(N)NC(NOCC=Cc2ccccc2)=N1 | 230 nM |
| COCn1ccc2c3c(N)nc(N)nc3ccc21 | 990 nM |
| Cc1cc(NC(=O)Nc2ccc3ncccc3c2)c2ccccc2n1 | 960 nM |
| O=C(/C=C/c1ccc(Cl)c(Cl)c1)NCc1ccc(CN2CCC(c3c[nH]c4ccccc34)CC2)cc1 | 710 nM |
| CN(C)c1cc(C(=O)N[C@@H](Cc2ccccc2)[C@H](O)CNC2CCCCC2)cc2[nH]ccc12 | 1070 nM |
| CCCNc1ccc(-c2cc(C(N)=O)c3[nH]cc(C4CCN(S(=O)(=O)CC)CC4)c3c2)cn1 | 820 nM |
| COc1cc(C(=O)Nc2cccc(-c3cn4ccc(C)cc4n3)c2)cc(OC)c1OC | 760 nM |
| C#CCN(Cc1ccc2nc(N)[nH]c(=O)c2c1)c1ccc(C(=O)N[C@@H](CCC(=O)O)C(=O)O)cc1 | 220 nM |
| CC(C)(C)C(=O)Nc1ccc(N2CCN(C(c3ccccc3)c3ccccc3)CC2)c(Cl)c1 | 660 nM |
| O=C(NC1CCN(Cc2ccccc2)CC1)c1cc(-c2ccncc2)c(-c2ccc(Cl)c(O)c2)o1 | 410 nM |

| SMILES | IC50 |
| --- | --- |
| O=C(Nc1cc(F)cc(-c2cccnc2)c1)c1ccc2c(=O)n(Cc3ccccc3)cnc2c1 | 1330 nM |
| O=C(/C=C/c1ccc(C(F)(F)F)cc1)NCCCCCN1CCCN(C(=O)Nc2ccc(F)c(Cl)c2)CC1 | 370 nM |
| c1ccc2[nH]c(-c3ccc(-c4ccc(CN5CCN(CCN6CCOCC6)CC5)cc4)s3)nc2c1 | 280 nM |
| CN(C)CC(=O)NCC(NCCCNc1cc(=O)c2ccccc2[nH]1)c1cc(Br)cc(Br)c1 (configuration not stated) | 1050 nM |
| O=C(/C=C/c1ccc(Cl)c(Cl)c1)NC1CCC(CN2CCC(c3c[nH]c4ccc(O)cc34)CC2)CC1 (configuration not stated) | 140 nM and 420 nM |
| C=CCNS(=O)(=O)c1ccc(NC(=O)C(C)Oc2ccc([N+](=O)[O-])cc2)cc1 (configuration not stated) | 1220 nM |
| COc1cccc(C(=O)NCc2cccs2)c1Oc1ccccc1 | 60 nM |
| O=C(Nc1ccc(-n2ccc(C(F)(F)F)n2)cc1)c1cccs1 | 1070 nM |
| O=C(NCCCCN1CC=C(c2ccc3c(c2OCc2ccccc2)CCCC3)CC1)c1ccc(-c2ccc(C(F)(F)F)cc2)cc1 | 300 nM |
| O=C(Nc1ccc(Cl)cc1)c1ccc(S(=O)(=O)NCC2CCN(CC3CCCCC3)CC2)cc1 | 860 nM |
| Cn1cc(C2CCN(CCCCCNC(=O)/C=C/c3ccc(Cl)c(Cl)c3)CC2)c2cc(O)ccc21 | 940 nM |
| O=S(=O)(Nc1cccc(CCN2CCC(N3CCCCC3)CC2)c1)c1cccc(C(F)(F)F)c1 | 980 nM |
| COc1ccc2ncc(F)c([C@@H](O)CN3CCC(NCc4cc5c(cn4)OCS5)CC3)c2c1 | 140 nM |
| N#Cc1ccc2c(c1)CCN(CCCn1c(-c3ccc4ccccc4c3)nc3ccncc31)CC2 | 200 nM |
| CCOC(=O)CCCc1cc(NC2CCN(C)CC2)nc(Nc2ccc(OC)cc2)n1 | 700 nM |
| CCCOc1ccc(-c2nonc2NC(=O)c2cccc(OC)c2)cc1OCCC | 1150 nM |
| CCc1cn2c3c(cc(C(=O)N[C@@H](Cc4ccccc4)[C@H](O)CNCCOC)cc13)N(C)S(=O)(=O)CC2 | 950 nM |
| Cc1cc(N(C)C)nc(Nc2ccc(NC(=O)c3ccccc3Cl)cc2)n1 | 1020 nM |
| Cn1cnc(CCNC(=O)c2cccc(-c3csc(-c4nc5ccccc5[nH]4)c3)c2)c1 | 600 nM |
| Cc1ncsc1CCN1C(=O)CC2(C1=O)C(=O)N(Cc1ccccc1)c1ccc(Cl)cc12 (configuration not stated) | 980 nM |
| C=CCn1c(=N)c(C(=O)NC2CCCCC2)cc2c(=O)n3cccc(C)c3nc21 | 1040 nM |
| O=C(/C=C/c1ccc(Cl)c(Cl)c1)NCCCCCN1CCC(CCNC(=O)Cc2ccc(Cl)cc2)CC1 | 1160 nM |
